Experiments:
[1] = test system: C57BL/6J mice; experiment: In vivo intraperitoneal glucose tolerance test (IPGTT); conditions: C57BL/6J male mice, 100 nmol/kg subcutaneous 1 h before glucose 1.5 g/kg i.p., 0-120 min, n = 6
Description: We performed in vivo intraperitoneal glucose tolerance tests (IPGTTs) on seven-week-old male C57BL/6J mice, which we purchased from DBL. The mice were randomly divided into five groups (n = 6). The IPGTTs were performed after glucose (1.5 g/kg dose) had been intraperitoneally administered to C57BL/6J male mice that had been fasted for 3 h. We obtained blood samples from the tail of each mouse at the predetermined time using an Accu-Check Guide (Roche Diabetes Care, Indianapolis, IN, USA).

[2] = K34R mutant; cited from earlier work
[3] = molecular target: human GLP-1 receptor (GLP-1R) overexpressed on HEK-293 cells (human) (UniProt P43220)
human GLP-1 receptor (GLP-1R) overexpressed on HEK-293 cells (human), sequence (P43220 24-463): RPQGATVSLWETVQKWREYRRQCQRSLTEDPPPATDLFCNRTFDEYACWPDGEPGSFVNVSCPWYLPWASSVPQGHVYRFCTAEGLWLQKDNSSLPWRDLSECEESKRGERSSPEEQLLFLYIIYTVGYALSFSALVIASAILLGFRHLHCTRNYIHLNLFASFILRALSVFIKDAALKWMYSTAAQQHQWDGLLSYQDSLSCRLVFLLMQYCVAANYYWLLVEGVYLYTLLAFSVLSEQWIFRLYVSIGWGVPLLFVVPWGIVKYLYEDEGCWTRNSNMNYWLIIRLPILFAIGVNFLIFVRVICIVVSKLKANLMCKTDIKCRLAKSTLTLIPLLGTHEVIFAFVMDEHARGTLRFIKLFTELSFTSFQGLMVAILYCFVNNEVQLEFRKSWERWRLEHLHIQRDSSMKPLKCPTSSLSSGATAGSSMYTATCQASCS

EC50 of cAMP production in HEK-293 cells overexpressing GLP-1R [3] [nM] | Compound | blood glucose profile / blood glucose levels in IPGTT [1] | biological activity compared with wild-type GLP-1 [2]
– | CC[C@H](C)[C@H](NC(=O)[C@H](Cc1ccccc1)NC(=O)[C@H](CCC(=O)O)NC(=O)[C@H](CCCCN)NC(=O)[C@H](C)NC(=O)[C@H](C)NC(=O)[C@H](CCC(N)=O)NC(=O)CNC(=O)[C@H](CCC(=O)O)NC(=O)[C@H](CC(C)C)NC(=O)[C@H](Cc1ccc(O)cc1)NC(=O)[C@H](CO)NC(=O)[C@H](CO)NC(=O)[C@@H](NC(=O)[C@H](CC(=O)O)NC(=O)[C@H](CO)NC(=O)[C@@H](NC(=O)[C@H](Cc1ccccc1)NC(=O)[C@@H](NC(=O)CNC(=O)[C@H](CCC(=O)O)NC(=O)[C@H](C)NC(=O)[C@@H](N)Cc1c[nH]cn1)[C@@H](C)O)[C@@H](C)O)C(C)C)C(=O)N[C@@H](C)C(=O)N[C@@H](Cc1c[nH]c2ccccc12)C(=O)N[C@@H](CC(C)C)C(=O)N[C@H](C(=O)N[C@@H](CCCNC(=N)N)C(=O)NCC(=O)N[C@@H](CCCNC(=N)N)C(=O)NCC(=O)O)C(C)C [GLP1_C] | very similar to that of the negative control group | comparable biological activity to that of wild-type GLP-1
700 | GLP1_16HSA (GLP-1 variant conjugated to human serum albumin at position 16) (from UniProt P02768 25-609) | – | –

Source: PMC7238188, “Recombinant Peptide Production Platform Coupled with Site-Specific Albumin Conjugation Enables a Convenient Production of Long-Acting Therapeutic Peptide” (Pharmaceutics, 2020)
